Here are results for one cell line from the supplement of paper PMC10307832.

Common to all, as to assay: relative viability (nuclei count vs DMSO), 5 days (fraction); higher = more cells survive
Compound in assay [1]: CCn1c(-c2nonc2N)nc2c(C#CC(C)(C)O)ncc(OC[C@H]3CCCNC3)c21 + O=C(c1cc(Cc2n[nH]c(=O)c3ccccc23)ccc1F)N1CCN(C(=O)C2CC2)CC1 [Olaparib] (partner 8 µM)
The gist of the method: (§1)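 The day after seeding in 1536-well plates, lung cancer cell lines were treated by pin tool with a single drug, or with a fixed anchor-drug dose together with five library-drug doses (not always all listed) in √10 steps. After 5 days, a combined fix-and-stain solution (final 0.05% Triton X-100, 1% formaldehyde, 1 ug/ml Hoechst) was added. Nuclei counted on 4× images gave relative viability as treated counts over vehicle counts, reported as the median of duplicate plates.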

Compound in assay [2]: CCn1c(-c2nonc2N)nc2c(C#CC(C)(C)O)ncc(OC[C@H]3CCCNC3)c21 + Cc1nc(Nc2ncc(C(=O)Nc3c(C)cccc3Cl)s2)cc(N2CCN(CCO)CC2)n1 [Dasatinib] (partner 0.075 µM)
The method in brief: as §1

Compound in the assay “BAM7 + Tozasertib”: CCOC1=CC=CC=C1N=NC2=C(NN(C2=O)C3=NC(=CS3)C4=CC=CC=C4)C [BAM7] + Cc1cc(Nc2cc(N3CCN(C)CC3)nc(Sc3ccc(NC(=O)C4CC4)cc3)n2)n[nH]1 [Tozasertib] (partner 0.1 µM)
The gist of the method:
as §1

Compound in assay [3]: CCn1c(-c2nonc2N)nc2c(C#CC(C)(C)O)ncc(OC[C@H]3CCCNC3)c21 + CC(=O)c1c(C)c2cnc(Nc3ccc(N4CCNCC4)cn3)nc2n(C2CCCC2)c1=O [Palbociclib] (partner 0.5 µM)
The method in brief: as §1

On to UMC-11, for which the relative viability turned out to be 0.402 in assay [1] (first compound 0.01 µM); 0.391 in assay [1] (first compound 0.03162 µM); 0.655 in assay [1] (first compound 0.1 µM); 0.392 in assay [1] (first compound 0.3162 µM); 0.359 in assay [1] (first compound 1 µM); 0.449 in assay [2] (first compound 0.01 µM). Besides, the relative viability in assay [2] (first compound 0.03162 µM) was 0.498; in assay [2] (first compound 0.1 µM), 0.438; in assay [2] (first compound 0.3162 µM) it was 0.449; in assay [2] (first compound 1 µM), 0.399; in the assay with BAM7 + Tozasertib (first compound 0.5 µM), 0.2; with BAM7 + Tozasertib (first compound 5 µM), 0.202. For the same cell line, the relative viability came out at 0.196 with BAM7 + Tozasertib (first compound 15.81 µM); 0.198 with BAM7 + Tozasertib (first compound 50 µM); 0.292 in assay [3] (first compound 0.01 µM); 0.291 in assay [3] (first compound 0.03162 µM); 0.305 in assay [3] (first compound 0.1 µM); 0.329 in assay [3] (first compound 0.3162 µM). For the same cell line, in assay [3] (first compound 1 µM), the relative viability was 0.339.
